Measurements taken from PubChem BioAssay AID328 (DTP/NCI, 2004).
Values joined by “and” are separate entries in the source; they are usually repeats but may differ in a detail not shown here. Equal values may be shown once. Inconclusive results and toxic doses are left out.

System: BDF1 mice, P388 leukemia ip, median survival T/C
Assay: NCI In Vivo Anticancer Drug Screen. Data for tumor model P388 Leukemia (intraperitoneal) in B6D2F1 (BDF1) mice
Conditions: endpoint: median survival time, higher = longer survival
Method in brief: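 Steps: implant the tumour, treat one group with compound and another with vehicle, record survival, then divide treated by control.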

[1] = dose: 50.0 mg/kg/injection, schedule: Q04DX003 (ip), vehicle: saline
[2] = dose: 100.0 mg/kg/injection, schedule: Q04DX003 (ip), vehicle: saline with Tween-80
[3] = dose: 200.0 mg/kg/injection, schedule: Q04DX003 (ip), vehicle: saline with Tween-80
[4] = dose: 100.0 mg/kg/injection, schedule: Q01DX001 (ip), vehicle: saline with Tween-80
[5] = dose: 200.0 mg/kg/injection, schedule: Q01DX001 (ip), vehicle: saline with Tween-80
[6] = dose: 400.0 mg/kg/injection, schedule: Q01DX001 (ip), vehicle: saline with Tween-80

NNC(=O)c1ccc(Cl)cc1Nc1ccc(F)cc1
T/C [1]: 104 % of control | T/C (dose: 100.0 mg/kg/injection, schedule: Q04DX003 (ip), vehicle: saline): 100 % of control

COCCn1c2nc(=O)n(-c3ccccc3)c(=O)c-2nc2c1CCCC2
T/C (dose: 25.0 mg/kg/injection, schedule: Q01DX009 (ip), vehicle: saline with Tween-80): 103 % of control | T/C (dose: 50.0 mg/kg/injection, schedule: Q01DX009 (ip), vehicle: saline with Tween-80): 97 % of control and 112 % of control | T/C (dose: 100.0 mg/kg/injection, schedule: Q01DX009 (ip), vehicle: saline with Tween-80): 113 % of control and 124 % of control | T/C (dose: 200.0 mg/kg/injection, schedule: Q01DX009 (ip), vehicle: saline with Tween-80): 110 % of control

CCCCSc1ncnc2nc[nH]c12
T/C [2]: 104 % of control | T/C [3]: 100 % of control

O=P(N1CCCCCC1)(N1CC1)N1CC1
T/C (dose: 5.0 mg/kg/injection, schedule: Q01DX009 (ip), vehicle: saline): 168 % of control | T/C (dose: 6.25 mg/kg/injection, schedule: Q04DX003 (ip), vehicle: saline): 95 % of control | T/C (dose: 7.0 mg/kg/injection, schedule: Q04DX003 (ip), vehicle: saline): 112 % of control | T/C (dose: 8.0 mg/kg/injection, schedule: Q01DX009 (ip), vehicle: saline): 157 % of control and 222 % of control | T/C (dose: 11.0 mg/kg/injection, schedule: Q04DX003 (ip), vehicle: saline): 150 % of control | T/C (dose: 16.5 mg/kg/injection, schedule: Q04DX003 (ip), vehicle: saline): 180 % of control | T/C (dose: 17.0 mg/kg/injection, schedule: Q04DX003 (ip), vehicle: saline): 166 % of control and 181 % of control | T/C (dose: 25.0 mg/kg/injection, schedule: Q04DX003 (ip), vehicle: saline): 218 % of control [middle of 4 runs] | T/C [1]: 162 % of control

C/C(CCCCl)=N/NC(N)=S
T/C (dose: 75.0 mg/kg/injection, schedule: Q01DX009 (ip), vehicle: saline): 86 % of control | T/C (dose: 115.0 mg/kg/injection, schedule: Q01DX009 (ip), vehicle: saline): 86 % of control

CCN(CC)CC(C)Nc1ccc([N+](=O)[O-])c2sc3ccccc3c(=O)c12 (centres undefined)
T/C [2]: 200 % of control | T/C (dose: 132.0 mg/kg/injection, schedule: Q04DX003 (ip), vehicle: saline with Tween-80): 209 % of control and 222 % of control | T/C [3]: 272 % of control and 300 % of control and 195 % of control | T/C (dose: 300.0 mg/kg/injection, schedule: Q04DX003 (ip), vehicle: saline with Tween-80): 109 % of control and 118 % of control | T/C (dose: 400.0 mg/kg/injection, schedule: Q04DX003 (ip), vehicle: saline with Tween-80): 115 % of control

O=C(O)c1ccc(NC(=O)C(F)(F)F)cc1
T/C (dose: 25.0 mg/kg/injection, schedule: Q04DX003 (ip), vehicle: saline sonified): 86 % of control | T/C (dose: 100.0 mg/kg/injection, schedule: Q04DX003 (ip), vehicle: saline sonified): 95 % of control

Cc1cccc(-n2nc3c(=O)n(C)c(=O)n(C)c3nc2=O)c1
T/C [4]: 88 % of control | T/C [5]: 96 % of control | T/C [6]: 92 % of control

CCOC(=O)Nc1cc(NCC(=O)c2ccc(C(F)(F)F)cc2)c([N+](=O)[O-])c(N)n1
T/C (dose: 50.0 mg/kg/injection, schedule: Q01DX001 (ip), vehicle: saline with Tween-80): 94 % of control | T/C [4]: 105 % of control | T/C [5]: 105 % of control

c1ccc(OCC2c3ccccc3Nc3ccccc32)cc1
T/C [4]: 91 % of control | T/C [5]: 94 % of control | T/C [6]: 100 % of control

COC(=O)C(CO)NC(=O)OCc1ccccc1 (centres undefined)
T/C (dose: 12.5 mg/kg/injection, schedule: Q01DX009 (ip), vehicle: water): 100 % of control | T/C (dose: 25.0 mg/kg/injection, schedule: Q01DX009 (ip), vehicle: water): 100 % of control | T/C (dose: 50.0 mg/kg/injection, schedule: Q01DX009 (ip), vehicle: water): 96 % of control | T/C (dose: 100.0 mg/kg/injection, schedule: Q01DX009 (ip), vehicle: water): 96 % of control | T/C (dose: 200.0 mg/kg/injection, schedule: Q01DX009 (ip), vehicle: water): 100 % of control

C1=CC(c2ccccc2)N2C(C(c3ccccc3)=N1)C2c1ccccc1 (centres undefined)
T/C (dose: 25.0 mg/kg/injection, schedule: Q04DX003 (ip), vehicle: saline with Tween-80): 98 % of control | T/C (dose: 50.0 mg/kg/injection, schedule: Q04DX003 (ip), vehicle: saline with Tween-80): 94 % of control | T/C [2]: 100 % of control | T/C [3]: 103 % of control
